According to patent publication US20150258101A1 (Proximagen Limited, priority 2014, published 2015):
Counter-ions that a name gives are not always drawn.

Columns and labels:
[1] = target: T1, human ether a go-go related gene (hERG) K+ channel (Homo sapiens, UniProt Q12809); experiment: hERG assay, IonWorks patch clamp electrophysiology; type: cell-based; details: Chinese Hamster Lung cell line stably expressing hERG; max assay concentration 11 uM
T1 construct: a Chinese Hamster Lung cell line stably expressing the full length hERG channel; expressed in transfected cells; host or cells: Chinese Hamster Lung cell line
Method: Compounds of the invention were tested for inhibition of the human ether a go-go related gene (hERG) K^+ channel using IonWorks patch clamp electrophysiology. 8 Point concentration-response curves were generated on two occasions using 3-fold serial dilutions from the maximum assay concentration (11 uM). Electrophysiological recordings were made from a Chinese Hamster Lung cell line stably expressing the full length hERG channel. Single cell ion currents were measured in the perforated patch clamp configuration (100 ug/mL amphoterocin) at room temperature using an IonWorks Quattro instrument. The internal solution contained 140 mM KCl, 1 mM MgCl2, 1 mM EGTA and 20 mM HEPES and was buffered to pH 7.3. The external solution contained 138 mM NaCl, 2.7 mM KCl, 0.9 mM CaCl2, 0.5 mM MgCl2, 8 mM Na2HPO4 and 1.5 mM KH2PO4, and was buffered to pH 7.3. […] This sequence was repeated 5 times at a frequency of 0.25 Hz. Currents were measured from the tail step at the 5th pulse, and referenced to the holding current. Compounds were incubated for 6-7 min prior to a second measurement of the hERG signal using an identical pulse train. […] A control compound (quinidine) was used (see Table 20 below).

[2] = target: T2, purified recombinantly expressed human SSAO (Homo sapiens, UniProt Q16853); experiment: SSAO enzyme inhibition assay (benzylamine substrate; hydrogen peroxide/HRP-coupled or 14C aldehyde detection); type: biochemical; details: SSAO inhibitory activity, RT
T2 construct: made in house
T2 sequence (Q16853 1-763): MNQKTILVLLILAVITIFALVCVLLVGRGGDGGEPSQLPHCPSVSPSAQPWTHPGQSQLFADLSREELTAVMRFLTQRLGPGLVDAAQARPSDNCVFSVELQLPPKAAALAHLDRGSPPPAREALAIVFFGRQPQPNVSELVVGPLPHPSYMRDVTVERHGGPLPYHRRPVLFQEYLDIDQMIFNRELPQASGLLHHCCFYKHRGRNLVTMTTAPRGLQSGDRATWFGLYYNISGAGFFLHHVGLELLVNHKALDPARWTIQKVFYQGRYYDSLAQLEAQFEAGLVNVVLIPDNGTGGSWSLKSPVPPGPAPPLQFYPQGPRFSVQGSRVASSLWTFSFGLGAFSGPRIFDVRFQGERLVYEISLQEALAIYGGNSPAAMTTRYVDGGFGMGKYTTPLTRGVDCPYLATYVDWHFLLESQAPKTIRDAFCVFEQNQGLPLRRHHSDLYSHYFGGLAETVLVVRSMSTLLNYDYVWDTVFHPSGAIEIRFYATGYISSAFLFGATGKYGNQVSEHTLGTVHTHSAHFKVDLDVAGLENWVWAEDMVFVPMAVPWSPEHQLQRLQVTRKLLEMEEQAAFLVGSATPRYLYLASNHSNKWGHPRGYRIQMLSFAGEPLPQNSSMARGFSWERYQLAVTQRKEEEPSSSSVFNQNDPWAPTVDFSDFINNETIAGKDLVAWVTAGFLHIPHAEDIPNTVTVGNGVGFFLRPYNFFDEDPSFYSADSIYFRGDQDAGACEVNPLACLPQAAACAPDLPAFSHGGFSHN
Procedure, shortened: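 IC50 values came from a four-parameter logistic fit of % signal decrease versus DMSO control, with no-enzyme background subtracted. Two read-outs were used with human recombinant SSAO after ~15 min compound pre-incubation at RT. In the H2O2/HRP-Amplex read-out, enzyme was 1 ug/ml and benzylamine 100 uM (pH 7.4 phosphate), with resorufin fluorescence followed 1-2 h. In the 14C-benzaldehyde read-out (PBS), enzyme was 10 ug/ml and benzylamine 40 uM, run 1 h then acid-stopped.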

T1 sequence (Q12809 whole entry): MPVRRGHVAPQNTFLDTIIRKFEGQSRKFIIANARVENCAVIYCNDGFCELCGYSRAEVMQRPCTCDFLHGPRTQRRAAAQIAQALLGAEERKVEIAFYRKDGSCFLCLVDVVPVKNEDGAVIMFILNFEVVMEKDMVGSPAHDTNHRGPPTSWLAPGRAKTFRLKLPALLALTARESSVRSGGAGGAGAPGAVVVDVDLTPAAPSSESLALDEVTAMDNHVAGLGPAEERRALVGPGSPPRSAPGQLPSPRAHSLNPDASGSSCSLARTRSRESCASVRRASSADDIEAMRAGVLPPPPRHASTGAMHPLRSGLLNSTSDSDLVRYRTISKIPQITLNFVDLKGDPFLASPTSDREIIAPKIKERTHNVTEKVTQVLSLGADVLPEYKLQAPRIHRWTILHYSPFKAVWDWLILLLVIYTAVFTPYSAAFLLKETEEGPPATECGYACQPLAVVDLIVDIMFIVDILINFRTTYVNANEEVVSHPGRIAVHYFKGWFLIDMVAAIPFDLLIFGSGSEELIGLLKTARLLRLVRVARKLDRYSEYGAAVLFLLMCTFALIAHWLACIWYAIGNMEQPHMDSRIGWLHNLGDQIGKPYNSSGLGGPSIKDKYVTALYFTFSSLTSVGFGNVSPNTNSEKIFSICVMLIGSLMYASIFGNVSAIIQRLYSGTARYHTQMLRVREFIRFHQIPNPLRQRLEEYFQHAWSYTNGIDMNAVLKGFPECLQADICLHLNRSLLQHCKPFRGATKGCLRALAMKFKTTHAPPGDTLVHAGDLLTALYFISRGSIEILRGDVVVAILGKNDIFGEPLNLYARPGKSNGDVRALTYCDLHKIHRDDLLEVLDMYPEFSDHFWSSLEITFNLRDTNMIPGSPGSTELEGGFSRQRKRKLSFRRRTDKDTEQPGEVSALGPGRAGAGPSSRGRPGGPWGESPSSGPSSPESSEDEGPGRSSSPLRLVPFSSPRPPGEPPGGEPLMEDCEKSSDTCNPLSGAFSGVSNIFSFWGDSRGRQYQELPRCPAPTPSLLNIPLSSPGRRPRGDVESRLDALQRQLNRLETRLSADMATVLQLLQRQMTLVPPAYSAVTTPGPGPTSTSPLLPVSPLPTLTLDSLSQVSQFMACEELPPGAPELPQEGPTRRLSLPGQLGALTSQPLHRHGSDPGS

SMILES	IC50 [2]	IC50 [1]
O=C1CN(c2ncc(-c3nc4ccncc4n3-c3ccc(F)cc3)cn2)CCN1 [Example 12, 4-{5-[3-(4-Fluorophenyl)-3H-imidazo[4,5-c]pyridin-2-yl]pyrimidin-2-yl}piperazin-2-one]	50 to 200 nM	> 10000 nM
Clc1ccc(-n2c(-c3cnc(N4CCNCC4)o3)nc3ccncc32)cc1 [Example 18, 1-{5-[3-(4-Chlorophenyl)-3H-imidazo[4,5-c]pyridin-2-yl]-1,3-oxazol-2-yl}piperazine dihydrochloride]	50 to 200 nM	> 10000 nM
Fc1ccc(-n2c(-c3cnc(NC4CCOCC4)nc3)nc3ccncc32)cc1 [Example 20, 5-[3-(4-Fluorophenyl)-3H-imidazo[4,5-c]pyridin-2-yl]-N-(oxan-4-yl)pyrimidin-2-amine]	50 to 200 nM	> 10000 nM
Cc1ccc(-n2c(-c3cnc(N4CCOCC4)nc3)nc3ccncc32)c(F)c1 [Example 53, 4-{5-[3-(2-Fluoro-4-methylphenyl)-3H-imidazo[4,5-c]pyridin-2-yl]pyrimidin-2-yl}morpholine]	200 to 1200 nM	> 10000 nM
Fc1ccc(-n2c(-c3ccc(N4CCOCC4)nc3)nc3ccncc32)cc1 [Example 54, 4-{5-[3-(4-Fluorophenyl)-3H-imidazo[4,5-c]pyridin-2-yl]pyridin-2-yl}morpholine]	200 to 1200 nM	> 10000 nM
Cc1ccc(-n2c(-c3cnc(N4CCOCC4)nc3)nc3ccncc32)cc1 [Example 57, 4-{5-[3-(4-Methylphenyl)-3H-imidazo[4,5-c]pyridin-2-yl]pyrimidin-2-yl}morpholine]	50 to 200 nM	> 10000 nM
Cc1ccc(-n2c(-c3ccc(N4CCOCC4)nc3)nc3ccncc32)cc1 [Example 63, 4-{5-[3-(4-Methylphenyl)-3H-imidazo[4,5-c]pyridin-2-yl]pyridin-2-yl}morpholine]	200 to 1200 nM	> 10000 nM
Cc1ccc(-n2c(-c3ccc(N4CCOCC4)nc3)nc3ccncc32)cn1 [Example 64, 4-{5-[3-(6-Methylpyridin-3-yl)-3H-imidazo[4,5-c]pyridin-2-yl]pyridin-2-yl}morpholine]	200 to 1200 nM	> 10000 nM
CC1CN(c2ccc(-c3nc4ccncc4n3-c3ccc(F)cc3)cn2)CCO1 (centres unmarked) [Example 70, 4-{5-[3-(4-Fluorophenyl)-3H-imidazo[4,5-c]pyridin-2-yl]pyridin-2-yl}-2-methylmorpholine]	< 50 nM	> 10000 nM
CN(C)c1ccc(-c2nc3ccncc3n2-c2ccc(F)cc2)cn1 [Example 71, 5-[3-(4-Fluorophenyl)-3H-imidazo[4,5-c]pyridin-2-yl]-N,N-dimethylpyridin-2-amine]	200 to 1200 nM	> 10000 nM
Clc1ccc(-n2c(-c3cnc(N4CCOCC4)nc3)nc3ccncc32)nc1 [Example 75, 4-{5-[3-(5-Chloropyridin-2-yl)-3H-imidazo[4,5-c]pyridin-2-yl]pyrimidin-2-yl}morpholine; tris(trifluoroacetic acid)]	< 50 nM	> 10000 nM
Fc1cc(Cl)ccc1-n1c(-c2cnc(N3CCOCC3)nc2)nc2ccncc21 [Example 77, 4-{5-[3-(4-Chloro-2-fluorophenyl)-3H-imidazo[4,5-c]pyridin-2-yl]pyrimidin-2-yl}morpholine]	200 to 1200 nM	> 10000 nM
Fc1ccc(-n2c(-c3cnc(N4CCOCC4)nc3)nc3ccncc32)c(F)c1 [Example 78, 4-{5-[3-(2,4-Difluorophenyl)-3H-imidazo[4,5-c]pyridin-2-yl]pyrimidin-2-yl}morpholine]	< 50 nM	> 10000 nM
Fc1cc(Cl)ccc1-n1c(-c2ccc(N3CCOCC3)nc2)nc2ccncc21 [Example 80, 4-{5-[3-(4-Chloro-2-fluorophenyl)-3H-imidazo[4,5-c]pyridin-2-yl]pyridin-2-yl}morpholine]	50 to 200 nM	> 10000 nM
Clc1ccc(-n2c(-c3ccc(N4CCOCC4)nc3)nc3ccncc32)nc1 [Example 81, 4-{5-[3-(5-Chloropyridin-2-yl)-3H-imidazo[4,5-c]pyridin-2-yl]pyridin-2-yl}morpholine]	< 50 nM	> 10000 nM
Cc1ccc(-n2c(-c3ccc(N4CCOCC4)nc3)nc3ccncc32)nc1 [Example 82, 4-{5-[3-(5-Methylpyridin-2-yl)-3H-imidazo[4,5-c]pyridin-2-yl]pyridin-2-yl}morpholine]	< 50 nM	> 10000 nM

More lines, main results first:

IC50 [2]	SMILES	IC50 [1]
< 50 nM	Clc1ccc(-n2c(-c3cnc(NC4CCOCC4)nc3)nc3ccncc32)cc1 [Example 11, 5-[3-(4-Chlorophenyl)-3H-imidazo[4,5-c]pyridin-2-yl]-N-(oxan-4-yl)pyrimidin-2-amine; bis(trifluoroacetic acid)]	> 10000 nM
< 50 nM	O=C1CN(c2ncc(-c3nc4ccncc4n3-c3ccc(Cl)cc3)cn2)CCN1 [Example 13, 4-{5-[3-(4-Chlorophenyl)-3H-imidazo[4,5-c]pyridin-2-yl]pyrimidin-2-yl}piperazin-2-one]	> 10000 nM
< 50 nM	Cc1cc(N2CCOCC2)ncc1-c1nc2ccncc2n1-c1ccc(F)cc1 [Example 21, 4-{5-[3-(4-Fluorophenyl)-3H-imidazo[4,5-c]pyridin-2-yl]-4-methylpyridin-2-yl}morpholine]	> 10000 nM
< 50 nM	C[C@@H]1CN(c2ncc(-c3nc4ccncc4n3-c3ccc(F)cc3)cn2)C[C@H](C)O1 [Example 23, (2R,6S)-4-{5-[3-(4-Fluorophenyl)-3H-imidazo [4,5-c]pyridin-2-yl]pyrimidin-2-yl}-2,6-dimethylmorpholine]	> 10000 nM
< 50 nM	CC1(C)CN(c2ncc(-c3nc4ccncc4n3-c3ccc(F)cc3)cn2)CCO1 [Example 24, 4-{5-[3-(4-Fluorophenyl)-3H-imidazo[4,5-c]pyridin-2-yl]pyrimidin-2-yl}-2,2-dimethylmorpholine]	> 10000 nM
< 50 nM	CN1CCN(Cc2ccc(-c3nc4ccncc4n3-c3ccc(Cl)cc3)cc2)CC1 [Example 46, 1-({4-[3-(4-Chlorophenyl)-3H-imidazo[4,5-c]pyridin-2-yl]phenyl}methyl)-4-methylpiperazine; formic acid]	> 10000 nM
< 50 nM	Clc1ccc(-n2c(-c3ccc(N4CCOCC4)nc3)nc3ccncc32)cc1 [Example 47, 4-{5-[3-(4-Chlorophenyl)-3H-imidazo[4,5-c]pyridin-2-yl]pyridin-2-yl}morpholine]	1000 to 10000 nM
< 50 nM	Clc1ccc(-n2c(-c3ccc(N4CCNCC4)nc3)nc3ccncc32)cc1 [Example 50, 1-{5-[3-(4-Chlorophenyl)-3H-imidazo[4,5-c]pyridin-2-yl]pyridin-2-yl}piperazine]	> 10000 nM
< 50 nM	Clc1ccc(-n2c(-c3cnc(N4CCOCC4)nc3)nc3ccncc32)cc1 [Example 51, 4-{5-[3-(4-Chlorophenyl)-3H-imidazo[4,5-c]pyridin-2-yl]pyrimidin-2-yl}morpholine]	1000 to 10000 nM
< 50 nM	Fc1ccc(-n2c(-c3cnc(N4CCOCC4)nc3)nc3ccncc32)cc1 [Example 52, 4-{5-[3-(4-Fluorophenyl)-3H-imidazo[4,5-c]pyridin-2-yl]pyrimidin-2-yl}morpholine]	> 10000 nM
< 50 nM	Cc1ccc(-n2c(-c3ccc(N4CCOCC4)nc3)nc3ccncc32)c(F)c1 [Example 67, 4-{5-[3-(2-Fluoro-4-methylphenyl)-3H-imidazo[4,5-c]pyridin-2-yl]pyridin-2-yl}morpholine]	1000 to 10000 nM
< 50 nM	Fc1ccc(-n2c(-c3cnc(N4CCCC4)nc3)nc3ccncc32)cc1 [Example 69, 5-[3-(4-Fluorophenyl)-3H-imidazo[4,5-c]pyridin-2-yl]-2-(pyrrolidin-1-yl)pyrimidine]	> 10000 nM
